Assay results published in US8026218B2, “Bifunctional analgesic compounds for opioid receptor agonists and neurokinin-1 receptor antagonists” (The University of Arizona, priority 2006, dated 2011).
Where two headings read alike, the source gives them in different places. Peptide text beside a SMILES is read from it.

Experiments:
[1] = molecular target: T1, human δ opioid receptors (hDOR) (Homo sapiens, UniProt P41143); assay: Radioligand competition binding, [3H]DPDPE, hDOR membranes
T1 construct: expressed in transfected cells; host or cells: HN9.10 neuroblastoma cell line, pCDNA3, neomycin-selected clones
T1 sequence (P41143 whole entry): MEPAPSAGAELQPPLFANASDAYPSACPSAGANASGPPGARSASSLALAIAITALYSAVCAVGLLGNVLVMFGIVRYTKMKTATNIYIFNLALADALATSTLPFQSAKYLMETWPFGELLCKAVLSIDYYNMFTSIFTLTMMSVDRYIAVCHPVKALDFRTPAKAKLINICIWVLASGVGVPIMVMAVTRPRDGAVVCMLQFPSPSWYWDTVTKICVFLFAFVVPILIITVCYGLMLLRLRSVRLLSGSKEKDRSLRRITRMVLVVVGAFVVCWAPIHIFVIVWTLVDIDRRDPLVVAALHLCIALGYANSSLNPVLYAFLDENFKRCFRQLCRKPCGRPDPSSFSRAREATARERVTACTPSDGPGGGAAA

[2] = molecular target: T1, human δ opioid receptors (hDOR); assay: [35S]GTP-γ-S binding assay, hDOR; type: biochemical; conditions: Table 32; for EC50: read-out: GTP hDOR EC50; for Emax: read-out: GTP hDOR EMax
[3] = molecular target: T2, rat μ opioid receptors (rMOR) (Rattus norvegicus, UniProt P33535); assay: biochemical; type: biochemical; conditions: Table 32; for EC50: read-out: GTP rMOR EC50; for Emax: read-out: GTP rMOR EMax
T2 construct: expressed in transfected cells; host or cells: HN9.10 neuroblastoma cell line, pCDNA3, neomycin-selected clones
T2 sequence (P33535 whole entry): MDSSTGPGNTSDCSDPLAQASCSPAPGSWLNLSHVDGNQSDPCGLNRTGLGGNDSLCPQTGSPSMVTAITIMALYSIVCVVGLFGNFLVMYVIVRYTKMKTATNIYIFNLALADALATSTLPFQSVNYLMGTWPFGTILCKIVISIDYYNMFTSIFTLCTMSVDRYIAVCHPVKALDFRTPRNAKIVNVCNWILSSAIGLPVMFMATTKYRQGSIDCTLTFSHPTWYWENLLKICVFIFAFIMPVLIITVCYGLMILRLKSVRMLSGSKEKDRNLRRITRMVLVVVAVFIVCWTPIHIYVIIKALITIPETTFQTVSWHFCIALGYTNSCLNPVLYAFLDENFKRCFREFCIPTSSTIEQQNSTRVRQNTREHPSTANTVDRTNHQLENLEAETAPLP

δ opioid receptors (MVD) = molecular target: T3, δ opioid receptors (MVD) (Mus musculus, UniProt P32300); assay: Mouse isolated vas deferens (MVD) assay, opioid agonist
T3 construct: from tissue; host or cells: mouse (ICR) isolated vas deferens
T3 sequence (P32300 whole entry): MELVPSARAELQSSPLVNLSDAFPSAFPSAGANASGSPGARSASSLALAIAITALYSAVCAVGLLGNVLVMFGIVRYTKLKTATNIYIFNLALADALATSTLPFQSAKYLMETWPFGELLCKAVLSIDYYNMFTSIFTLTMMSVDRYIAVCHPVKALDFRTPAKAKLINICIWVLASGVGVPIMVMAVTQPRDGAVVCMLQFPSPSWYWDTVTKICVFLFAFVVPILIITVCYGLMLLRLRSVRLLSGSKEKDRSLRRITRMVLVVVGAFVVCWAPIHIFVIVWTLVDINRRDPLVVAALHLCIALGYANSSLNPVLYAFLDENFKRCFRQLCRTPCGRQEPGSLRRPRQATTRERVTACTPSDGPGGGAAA

μ opioid receptors (GPI) = assay: Guinea pig isolated ileum (GPI) assay, opioid agonist;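 further: inhibition of electrically evoked contractions (0.1 Hz, 0.4 msec, supramaximal voltage) in organ baths at 37 °C, contraction height 3 min after each cumulative dose versus the 1 min before dosing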
[4] = molecular target: T4, Substance P receptors (guinea pig NK1) (Cavia porcellus, UniProt P30547); assay: Guinea pig isolated ileum (GPI) assay with substance P stimulation in presence of 1 μM naloxone
T4 construct: from tissue; host or cells: guinea pig (Hartley) ileum LMMP, 1 μM naloxone present
T4 sequence (P30547 whole entry): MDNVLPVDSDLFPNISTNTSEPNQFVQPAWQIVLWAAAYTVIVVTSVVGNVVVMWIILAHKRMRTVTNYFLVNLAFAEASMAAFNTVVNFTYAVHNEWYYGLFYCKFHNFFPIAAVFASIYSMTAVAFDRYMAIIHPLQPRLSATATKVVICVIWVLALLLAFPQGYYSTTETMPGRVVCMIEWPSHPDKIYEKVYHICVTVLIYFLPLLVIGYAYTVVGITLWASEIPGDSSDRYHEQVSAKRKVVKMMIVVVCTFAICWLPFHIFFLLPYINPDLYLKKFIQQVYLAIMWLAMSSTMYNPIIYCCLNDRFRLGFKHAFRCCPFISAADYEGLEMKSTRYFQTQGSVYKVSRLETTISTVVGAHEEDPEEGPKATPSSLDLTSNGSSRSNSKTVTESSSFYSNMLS

[5] = molecular target: T5, human NK1 receptor (hNK1) (Homo sapiens, UniProt P25103); assay: Radioligand competition binding, [3H]-Substance P, hNK1
T5 construct: expressed in transfected cells
T5 sequence (P25103 whole entry): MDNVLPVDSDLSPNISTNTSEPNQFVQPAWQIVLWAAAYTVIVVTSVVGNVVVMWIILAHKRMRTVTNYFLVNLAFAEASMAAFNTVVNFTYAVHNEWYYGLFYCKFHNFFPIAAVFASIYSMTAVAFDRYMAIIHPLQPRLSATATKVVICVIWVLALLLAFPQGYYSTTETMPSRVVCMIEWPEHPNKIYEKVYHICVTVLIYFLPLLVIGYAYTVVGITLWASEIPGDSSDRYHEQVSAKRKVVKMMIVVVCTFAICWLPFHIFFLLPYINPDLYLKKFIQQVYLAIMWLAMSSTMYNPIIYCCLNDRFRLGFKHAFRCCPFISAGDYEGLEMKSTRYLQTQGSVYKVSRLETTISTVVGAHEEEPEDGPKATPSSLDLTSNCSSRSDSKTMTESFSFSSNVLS

rat NK1 (rNK1) receptor = molecular target: T6, rat NK1 (rNK1) receptor (Rattus norvegicus, UniProt P14600); assay: Radioligand competition binding, [3H]substance P, rNK1/CHO membranes
T6 construct: expressed in transfected cells; host or cells: CHO (rNK-1/CHO cell line from Dr. James Krause)
T6 sequence (P14600 whole entry): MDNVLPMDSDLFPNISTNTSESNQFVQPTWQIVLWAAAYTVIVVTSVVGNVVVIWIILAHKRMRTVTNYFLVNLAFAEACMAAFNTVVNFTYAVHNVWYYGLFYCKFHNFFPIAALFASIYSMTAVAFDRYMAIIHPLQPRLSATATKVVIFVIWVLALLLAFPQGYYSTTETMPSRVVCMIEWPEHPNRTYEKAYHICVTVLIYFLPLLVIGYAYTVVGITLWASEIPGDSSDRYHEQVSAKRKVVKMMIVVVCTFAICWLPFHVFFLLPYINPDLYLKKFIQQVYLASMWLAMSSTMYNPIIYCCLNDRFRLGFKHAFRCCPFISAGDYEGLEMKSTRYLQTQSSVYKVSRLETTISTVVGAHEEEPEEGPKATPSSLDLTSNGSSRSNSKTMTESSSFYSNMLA

[6] = Table 35, read-out: GPI/LMMP μ-agonist IC50
[7] = GPI/LMMP SP antagonist Ke (nM), Table 35

SMILES | Ki [1] [nM] | EC50 [2] [nM] | Emax [2] [%] | EC50 [3] [nM] | Emax [3] [%] | IC50 (δ opioid receptors (MVD)) [nM] | IC50 (μ opioid receptors (GPI); [6]) [nM] | Kb [4, 7] [nM] | Ki [5] [nM] | Ki (rat NK1 (rNK1) receptor; Affinity (Ki, nM) rNK1, Table 32) [nM] | Ki (rat NK1 (rNK1) receptor; Ki (nM) rNK1, Table 33) [nM] | MVD δ-agonist, % at 1 μM (δ opioid receptors (MVD); Table 36, at 1 μM) [% at 1 μM] | GPI μ-agonist, % at 1 μM (μ opioid receptors (GPI); Table 36, at 1 μM) [% at 1 μM] | GPI SP-antagonist activity @ 1 μM ([4]; Table 36, @ 1 μM) | IC50 (μ opioid receptors (GPI); Table 36, read-out: GPI μ-agonist IC50) [nM] | Kb ([4]; GPI SP-antagonist Ke (nM), Table 36) [nM]
C[C@H](NC(=O)[C@H](Cc1ccccc1)NC(=O)CNC(=O)[C@@H](C)NC(=O)[C@@H](N)Cc1ccc(O)cc1)C(=O)N[C@@H](Cc1c[nH]c2ccccc12)C(=O)OCc1cc(C(F)(F)F)cc(C(F)(F)F)c1 [NP31] (HELM PEPTIDE1{Y.[dA].G.F.A.W.[FC(F)(F)c1cc(CO[*:1])cc(C(F)(F)F)c1]}$$$$V2.0; N-terminus assumed) | 1.2 | 3.3 | 91 | 11 | 50 | 6.4 | 401 | 18.6 | – | – | – | – | – | – | – | –
CC[C@H](NC(=O)[C@H](Cc1ccccc1)NC(=O)CNC(=O)[C@@H](C)NC(=O)[C@@H](N)Cc1ccc(O)cc1)C(=O)N[C@@H](Cc1c[nH]c2ccccc12)C(=O)OCc1cc(C(F)(F)F)cc(C(F)(F)F)c1 [NP33] (HELM PEPTIDE1{Y.[dA].G.F.[Abu].W.[FC(F)(F)c1cc(CO[*:1])cc(C(F)(F)F)c1]}$$$$V2.0; N-terminus assumed) | 1.6 | 2.9 | 43 | 8.6 | 32 | 12.4 | 600 | 5.6 | – | – | – | – | – | – | – | –
C[C@@H](NC(=O)[C@@H](N)Cc1ccc(O)cc1)C(=O)NCC(=O)N[C@@H](Cc1ccccc1)C(=O)NCCCC(=O)N[C@@H](Cc1c[nH]c2ccccc12)C(=O)OCc1cc(C(F)(F)F)cc(C(F)(F)F)c1 [NP34] (HELM PEPTIDE1{Y.[dA].G.F.[O=C(CCCN[*:1])[*:2]].W.[FC(F)(F)c1cc(CO[*:1])cc(C(F)(F)F)c1]}$$$$V2.0; N-terminus assumed) | – | 16.5 | 40 | 17.4 | 27 | 67.9 | 200 | 0.96 | 0.001 | – | – | – | – | – | – | –
C[C@@H](NC(=O)[C@@H](N)Cc1ccc(O)cc1)C(=O)NCC(=O)N[C@@H](Cc1ccccc1)C(=O)NC(C)(C)C(=O)N[C@@H](Cc1c[nH]c2ccccc12)C(=O)OCc1cc(C(F)(F)F)cc(C(F)(F)F)c1 [NP41] (HELM PEPTIDE1{Y.[dA].G.F.[Aib].W.[FC(F)(F)c1cc(CO[*:1])cc(C(F)(F)F)c1]}$$$$V2.0; N-terminus assumed) | – | 37.7 | 65 | 105 | 36 | 36.2 | – | – | 0.008 | 3.4 | – | – | – | – | – | –
N[C@@H](Cc1ccc(O)cc1)C(=O)NCC(=O)N[C@@H](Cc1c[nH]c2ccccc12)C(=O)OCc1cc(C(F)(F)F)cc(C(F)(F)F)c1 [NP42] | – | – | – | – | – | – | – | – | 0.003 | – | 0.36 | 7.5 | 2.6 | None @ 1 μM | – | –
C[C@@H](NC(=O)[C@@H](N)Cc1ccc(O)cc1)C(=O)NCC(=O)N[C@@H](Cc1ccc(F)cc1)C(=O)OCc1cc(C(F)(F)F)cc(C(F)(F)F)c1 [NP62] | – | – | – | – | – | 184 | – | – | 0.2 | – | – | – | – | – | 208 | 51.8
